We go through three molecules from article PMC5936891, “A focused library synthesis and cytotoxicity of quinones derived from the natural product bolinaquinone” (Royal Society Open Science, 2018).

Read-outs that look alike come from different tables or passages of the source.

The inhibition is the relative decrease from the control value, in per cent. Broadly, the GI50 is the concentration giving 50% growth inhibition. Usually melting point stands for the temperature of the solid-liquid transition.

The test system of one data set is HT29 (colon carcinoma). The data set is described as follows: MTT in vitro growth inhibition assay, HT29. The data set is classed as cell-based. To be noted: Homo sapiens; for inhibition at 25 µM: HT-29, 25 µM of drug, 72 h, read-out: Percentage of Cell Growth Inhibition HT29; for GI50: HT-29, 72 h drug exposure.
A further data set has as its system U87 (glioblastoma). The data set is described as follows: MTT in vitro growth inhibition assay, U87. The format is cell-based. To be noted: for inhibition at 25 µM: 25 µM of drug, 72 h, read-out: Percentage of Cell Growth Inhibition U87; for GI50: 72 h drug exposure.
The subject of another data set is MCF-7 (breast carcinoma). Description: MTT in vitro growth inhibition assay, MCF-7. The format is cell-based. To be noted: Homo sapiens; for inhibition at 25 µM: MCF7, 25 µM of drug, 72 h, read-out: Percentage of Cell Growth Inhibition MCF-7; for GI50: MCF7, 72 h drug exposure.
The subject of data set [1] is A2780 (ovarian carcinoma). The data set is described as follows: MTT in vitro growth inhibition assay, A2780. The data set is classed as cell-based. To be noted: Homo sapiens; for inhibition at 25 µM: 25 µM of drug, 72 h, read-out: Percentage of Cell Growth Inhibition A2780; for GI50: 72 h drug exposure.
For a further data set, the system named is H460 (lung carcinoma). The data set is described as follows: MTT in vitro growth inhibition assay, H460. To be noted: Homo sapiens; for inhibition at 25 µM: NCI-H460, 25 µM of drug, 72 h, read-out: Percentage of Cell Growth Inhibition H460; for GI50: NCI-H460, 72 h drug exposure. The format is cell-based.
Another data set concerns A431 (skin carcinoma). The data set is described as follows: MTT in vitro growth inhibition assay, A431. The data set is classed as cell-based. To be noted: Homo sapiens; for inhibition at 25 µM: A-431, 25 µM of drug, 72 h, read-out: Percentage of Cell Growth Inhibition A431; for GI50: A-431, 72 h, 72 h drug exposure.
The subject of data set [2] is Du145 (prostate carcinoma). The data set is described as follows: MTT in vitro growth inhibition assay, Du145. The following applies: Homo sapiens; for inhibition at 25 µM: DU-145, 25 µM of drug, 72 h, read-out: Percentage of Cell Growth Inhibition Du145; for GI50: DU-145, 72 h, 72 h drug exposure. The data set is classed as cell-based.
For a further data set, the system named is BE2-C (neuroblastoma). Description: MTT in vitro growth inhibition assay, BE2-C. The data set is classed as cell-based. The following applies: Homo sapiens, BE(2)-C, 72 h; for inhibition at 25 µM: 25 µM of drug, read-out: Percentage of Cell Growth Inhibition BE2-C; for GI50: 72 h drug exposure.
The next data set relates to SJ-G2 (glioblastoma). The data set is described as follows: MTT in vitro growth inhibition assay, SJ-G2. The format is cell-based. The following applies: for inhibition at 25 µM: 25 µM of drug, 72 h, read-out: Percentage of Cell Growth Inhibition SJ-G2.
The test system of data set [3] is MIA (pancreatic carcinoma). Description: MTT in vitro growth inhibition assay, MIA. The data set is classed as cell-based. The following applies: for inhibition at 25 µM: 25 µM of drug, 72 h, read-out: Percentage of Cell Growth Inhibition MIA; for GI50: 72 h drug exposure.
Data set [4] concerns SMA (spontaneous murine astrocytoma). The data set is described as follows: MTT in vitro growth inhibition assay, SMA. The data set is classed as cell-based. The following applies: Mus musculus; for inhibition at 25 µM: 25 µM of drug, 72 h, read-out: Percentage of Cell Growth Inhibition SMA; for GI50: 72 h drug exposure.
For data set [5], the system named is MCF10A (normal breast cell line). The data set is described as follows: MTT in vitro growth inhibition assay, MCF10A. The data set is classed as cell-based. To be noted: Homo sapiens, MCF-10A; for inhibition at 25 µM: 25 µM of drug, 72 h, read-out: Percentage of Cell Growth Inhibition MCF10A; for GI50: normal breast cell line, 72 h drug exposure.
For data set [6], the system named is panel of 11 cancer cell lines and one normal cell line. The data set is described as follows: Cytotoxicity across the whole cell line panel (MTT). The data set is classed as cell-based. The following applies: for activity at the initial screening concentration (to proceed to GI50 determination): 25 µM single dose. From the text:
With the desired bolinaquinone analogues 12–43 in hand, we examined their cytotoxicity against a panel of 11 tumour cell lines: HT29 (colon carcinoma), U87 and SJ-G2 (glioblastoma), MCF-7 (breast carcinoma), A2780 (ovarian carcinoma), H460 (lung carcinoma), A431 (skin carcinoma), Du145 (prostate carcinoma), BE2-C (neuroblastoma), MIA (pancreatic carcinoma), SMA (spontaneous murine astrocytoma) and a normal breast cell line (MCF10A). The inclusion of the MCF-10A cell line allowed a determination of a crude measure of relative toxicity while noting that the ultimate arbiter of toxicity requires in vivo evaluation. All analogues were initially screened at a 25 µM drug concentration.
Stock solutions were prepared as follows and stored at −20°C: drugs were stored as 40 mM solutions in DMSO. All cell lines were cultured in a humidified atmosphere 5% CO2 at 37°C. The cancer cell lines were maintained in Dulbecco's modified Eagle's medium (DMEM) (Trace Biosciences, Australia) supplemented with 10% fetal bovine serum, 10 mM sodium bicarbonate, penicillin (100 IU ml^−1), streptomycin (100 µg ml^−1) and glutamine (4 mM). The non-cancer MCF10A cell line was cultured in DMEM:F12 (1 : 1) cell culture media, 5% heat-inactivated horse serum, supplemented with penicillin (50 IU ml^−1), streptomycin (50 µg ml^−1), 20 mM Hepes, L-glutamine (2 mM), epidermal growth factor (20 ng ml^−1), hydrocortisone (500 ng ml^−1), cholera toxin (100 ng ml^−1) and insulin (10 ug ml^−1).
Cells in logarithmic growth were transferred to 96-well plates. Cytotoxicity was determined by plating cells in duplicate in 100 µl medium at a density of 2500–4000 cells per well. On day 0 (24 h after plating), when the cells were in logarithmic growth, 100 μl of medium with or without the test agent was added to each well. After 72 h, drug exposure growth inhibitory effects were evaluated using the MTT (3-[4,5-dimethylthiazol-2-yl]-2,5-diphenyl-tetrazolium bromide) assay and the absorbance read at 540 nm. Percentage growth inhibition was determined at a fixed drug concentration of 25 µM. A value of 100% is indicative of complete cell growth inhibition. Those analogues showing appreciable percentage growth inhibition underwent further dose–response analysis allowing for the calculation of a GI50 value. This value is the drug concentration at which cell growth is 50% inhibited based on the difference between the optical density values on day 0 and those at the end of drug exposure.

[7] abbreviates: average over the cell line panel, read-out: average GI50.

As to `COC1=CC(=O)C(OC)=C(c2ccc(-c3ccccc3)cc2)C1=O` [compound 27, 3-Biphenyl-4-yl-2,5-dimethoxycyclohexa-2,5-diene-1,4-dione], the melting point was 178 to 180 °C. Further, in the data set on HT29 (colon carcinoma), the inhibition at 25 µM turned out to be 76 ± 2% and the GI50 is 4.3 ± 0.1 µM. Besides, in the data set with U87 (glioblastoma), the inhibition at 25 µM turned out to be 54 ± 5% and the GI50 is 19 ± 2.3 µM. In the data set with MCF-7 (breast carcinoma), the inhibition at 25 µM worked out at 65 ± 2% and halving of growth (GI50) required 4 ± 0.1 µM. Also, in [1], the inhibition at 25 µM worked out at 70 ± 3% and halving of growth (GI50) required 4.3 ± 0.1 µM. In the data set with H460 (lung carcinoma), the inhibition at 25 µM came out at 48 ± 3% and it took 19 ± 2.5 µM to inhibit growth by half (GI50). For the same molecule, in the data set with A431 (skin carcinoma), the inhibition at 25 µM stood at 78 ± 1% and the GI50 turned out to be 5.7 ± 0.45 µM. In [2], the inhibition at 25 µM amounted to 57 ± 7% and the GI50 was 4.1 ± 0.1 µM. In the data set on BE2-C (neuroblastoma), the inhibition at 25 µM turned out to be 98 ± 4% and the GI50 turned out to be 4.1 ± 0.1 µM. For the same molecule, in the data set with SJ-G2 (glioblastoma), the inhibition at 25 µM was 38 ± 3%. Further, the GI50 with SJ-G2 (glioblastoma) (72 h drug exposure) worked out at 31 ± 0.9 µM. In data set [3], the inhibition at 25 µM came to 70 ± 1% and the GI50 worked out at 4.5 ± 0.13 µM. For the same molecule, in data set [4], the inhibition at 25 µM was 61 ± 6% and the GI50 turned out to be 19 ± 4.2 µM. For the same molecule, in data set [5], the inhibition at 25 µM came out at 63 ± 1% and the GI50 is 3.9 ± 0.1 µM. Moreover, in data set [6] (setting [7]), the GI50 worked out at 10.2 µM. Besides, in data set [6] (span over the cell line panel, read-out: GI50 values across the cell lines examined (range)), the GI50 was 3.9 to 19 µM.
Regarding `COC1=CC(=O)C(OC)=C(c2cccc(OC)c2OC)C1=O` [compound 22, 2,5-Dimethoxy-3-(2,3-dimethoxyphenyl)cyclohexa-2,5-diene-1,4-dione], the melting point was 122 to 125 °C. The inhibition at 25 µM in the data set with HT29 (colon carcinoma) came out at 15 ± 1%. Further, in the data set on U87 (glioblastoma), the inhibition at 25 µM came to 14 ± 8%. Moreover, the inhibition at 25 µM with MCF-7 (breast carcinoma) is 16 ± 10%. Moreover, in data set [1], the inhibition at 25 µM amounted to 44 ± 8%. The inhibition at 25 µM in the data set on H460 (lung carcinoma) worked out at 20 ± 2%. Moreover, the inhibition at 25 µM with A431 (skin carcinoma) stood at 35 ± 5%. Besides, the inhibition at 25 µM in data set [2] is 23 ± 9%. In addition, in the data set on BE2-C (neuroblastoma), the inhibition at 25 µM came out at 75 ± 8%. For the same molecule, in the data set with SJ-G2 (glioblastoma), the inhibition at 25 µM came out at 23 ± 10%. Also, the inhibition at 25 µM in data set [3] was 24 ± 4%. For the same molecule, the inhibition at 25 µM in [4] turned out to be 31 ± 7%. Besides, the inhibition at 25 µM in data set [5] worked out at 18 ± 2%. For the same molecule, the “activity at the initial screening concentration (to proceed to GI50 determination)” value in [6] is given as “not sufficiently active”.
As for `CCCNC1=C(c2ccc3ccccc3c2)C(=O)C(NCCC)=C(c2cccc3ccccc23)C1=O` [compound 43], the melting point lay in the range of 210 to 213 °C. Besides, in the data set on HT29 (colon carcinoma), the inhibition at 25 µM turned out to be 81 ± 2% and it took 0.08 µM to inhibit growth by half (GI50). In the data set with U87 (glioblastoma), the inhibition at 25 µM amounted to 91 ± 1% and the concentration for 50% growth inhibition (GI50) is 2.1 ± 1 µM. Moreover, in the data set on MCF-7 (breast carcinoma), the inhibition at 25 µM was 77 ± 2% and the GI50 came to 0.17 ± 0.1 µM. In data set [1], the inhibition at 25 µM worked out at 94 ± 1% and it took 0.14 ± 0.1 µM to inhibit growth by half (GI50). Besides, in the data set on H460 (lung carcinoma), the inhibition at 25 µM came to 76 ± 1% and growth was halved (GI50) at 0.11 µM. For the same molecule, in the data set with A431 (skin carcinoma), the inhibition at 25 µM was found to be 92 ± 1% and the GI50 worked out at 0.11 µM. In [2], the inhibition at 25 µM turned out to be 80 ± 2% and the GI50 stood at 0.16 ± 0.1 µM. In the data set with BE2-C (neuroblastoma), the inhibition at 25 µM was 44 ± 6% and the GI50 worked out at 0.08 µM. Further, the inhibition at 25 µM with SJ-G2 (glioblastoma) is 55 ± 1%. In data set [3], the inhibition at 25 µM worked out at 90 ± 2% and the GI50 was found to be 0.1 µM. Besides, in data set [4], the inhibition at 25 µM was determined as 80 ± 7% and the concentration for 50% growth inhibition (GI50) stood at 3.9 ± 3.5 µM. Besides, in data set [5], the inhibition at 25 µM was determined as 89 ± 2% and the GI50 was 0.07 µM. Moreover, in data set [6], the “activity at the initial screening concentration (to proceed to GI50 determination)” value is given as “sufficient activity”. In [6] (41 vs parent 29, 43 vs parent 33, on introduction of amine substituents), the “potency enhancement over parent analogue” value is on record as “greater than or equal to 20 fold”. In [6] (setting [7]), the GI50 amounted to 0.69 µM.
